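Following 48 hours of exposure in 96-well plates, responses at five concentrations were used to interpolate endpoints linearly. GI50 marks 50% less growth.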 The source made the active and inactive calls. Cut-off read from the data, not from the text of the source: active = GI50 up to about 1.1 µM and inactive = higher.
Tests used:
Experiment in all cases: NCI anticancer screen, dose series, 48 h
A549 = tested on: A549
SNB-19 = tested on: SNB-19
HCT-15 = tested on: HCT-15
UACC-62 = tested on: UACC-62
MDA-MB-435 = tested on: MDA-MB-435
A498 = tested on: A498
CAKI-1 = tested on: CAKI-1
NCI-H460 = tested on: NCI-H460
NCI-H23 = tested on: NCI-H23
TK-10 = tested on: TK-10
SR = tested on: SR
SN12C = tested on: SN12C
MCF7 = tested on: MCF7
HL-60 = tested on: HL-60
M14 = tested on: M14
786-0 = tested on: 786-0
OVCAR-8 = tested on: OVCAR-8
SK-MEL-28 = tested on: SK-MEL-28
U-251 = tested on: U-251
HCC 2998 = tested on: HCC 2998

SMILES	GI50 (A549)	GI50 (SNB-19)	GI50 (HCT-15) [µM]	GI50 (UACC-62)	GI50 (MDA-MB-435)	GI50 (A498)	GI50 (CAKI-1)	GI50 (NCI-H460)	GI50 (NCI-H23)	GI50 (TK-10)	GI50 (SR)	GI50 (SN12C)	GI50 (MCF7)	GI50 (HL-60)	GI50 (M14)	GI50 (786-0)	GI50 (OVCAR-8)	GI50 (SK-MEL-28)	GI50 (U-251)	GI50 (HCC 2998)
OCCCNCc1ccncc1	> 100 µM (inactive)	> 100 µM (inactive)	> 100	> 100 µM (inactive)	> 100 µM (inactive)	> 100 µM (inactive)	> 100 µM (inactive)	> 100 µM (inactive)	> 100 µM (inactive)	> 100 µM (inactive)	> 100 µM (inactive)	> 100 µM (inactive)	> 100 µM (inactive)	> 100 µM (inactive)	> 100 µM (inactive)	> 100 µM (inactive)	> 100 µM (inactive)	> 100 µM (inactive)	> 100 µM (inactive)	
Cc1ccc(/C=N/n2c(=O)[nH]c3ccccc3c2=O)cc1	> 100 µM (inactive)	> 100 µM (inactive)	> 100	> 100 µM (inactive)	> 100 µM (inactive)	> 100 µM (inactive)	> 100 µM (inactive)	> 100 µM (inactive)	> 100 µM (inactive)	> 100 µM (inactive)	> 100 µM (inactive)	> 100 µM (inactive)	> 100 µM (inactive)	> 100 µM (inactive)	> 100 µM (inactive)	> 100 µM (inactive)		> 100 µM (inactive)	> 100 µM (inactive)	
CC(C)(C)c1ccc(O)c(CN(Cc2cc(C(C)(C)C)ccc2O)c2ccccc2)c1	17.5 µM (inactive)	16.4 µM (inactive)	18.3	14.7 µM (inactive)	16.2 µM (inactive)	14.8 µM (inactive)	31.8 µM (inactive)	16.5 µM (inactive)	21.1 µM (inactive)	17.1 µM (inactive)	16 µM (inactive)	17.7 µM (inactive)	18.8 µM (inactive)		14.4 µM (inactive)	16.6 µM (inactive)	19.1 µM (inactive)	17.5 µM (inactive)	15.1 µM (inactive)	
NC(=O)c1csc(C2OC(CO)C(O)C2O)n1 (stereo not given)	102 µM (inactive)	38.3 µM (inactive)	4.14	42.6 µM (inactive)	57.9 µM (inactive)	785 µM (inactive)		225 µM (inactive)	60.1 µM (inactive)	237 µM (inactive)	> 31.6 µM (inactive)	379 µM (inactive)	31.4 µM (inactive)	8.95 µM (inactive)	6.84 µM (inactive)	21.8 µM (inactive)	26.6 µM (inactive)		8.39 µM (inactive)	467 µM (inactive)
CC1=C(CCC(C)CO)O[C@H]2C[C@H]3[C@@H]4CC[C@H]5C[C@@H](O)CC[C@]5(C)[C@H]4CC(=O)[C@]3(C)[C@@H]12 (stereo not given in full)	13.8 µM (inactive)	22.3 µM (inactive)	17.1	6.17 µM (inactive)	18.9 µM (inactive)	20.3 µM (inactive)	27.7 µM (inactive)	6.87 µM (inactive)	14.9 µM (inactive)	19.8 µM (inactive)	13.4 µM (inactive)	18.9 µM (inactive)	23.6 µM (inactive)	2.94 µM (inactive)	10.6 µM (inactive)	20.7 µM (inactive)	11.7 µM (inactive)	22.1 µM (inactive)	18 µM (inactive)	
O=C(O)c1cscc1Cc1cccs1	> 100 µM (inactive)	> 100 µM (inactive)	> 100	> 100 µM (inactive)	> 100 µM (inactive)	> 100 µM (inactive)	> 100 µM (inactive)	> 100 µM (inactive)	> 100 µM (inactive)	> 100 µM (inactive)	> 100 µM (inactive)	> 100 µM (inactive)	> 100 µM (inactive)	> 100 µM (inactive)	> 100 µM (inactive)	> 100 µM (inactive)	> 100 µM (inactive)	> 100 µM (inactive)	> 100 µM (inactive)	
NC(=S)Nc1nc(=S)[nH]c2c1SC1=N/C(=C\c3ccco3)C(=O)N12	> 100 µM (inactive)	> 100 µM (inactive)	48.8	> 100 µM (inactive)	> 100 µM (inactive)	> 100 µM (inactive)	> 82.4 µM (inactive)	68.7 µM (inactive)	> 100 µM (inactive)	> 100 µM (inactive)	21.1 µM (inactive)	> 100 µM (inactive)	29.1 µM (inactive)	19.1 µM (inactive)	> 60.7 µM (inactive)	> 100 µM (inactive)	> 100 µM (inactive)	> 100 µM (inactive)	> 100 µM (inactive)	

From ChEMBL document CHEMBL1201862, “PubChem BioAssay data set” (2004)
